Assay results published in patent US8716281B2, “Pyrimidine compounds that inhibit anaplastic lymphoma kinase” (Amgen Inc., priority 2010, dated 2014).

target: T1, wild-type human ALK cytoplasmic domain (amino acids 1058-1620) (Homo sapiens, UniProt Q9UM73); experiment: ALK Inhibition in Enzyme Assay (Lance TR-FRET); assay type: biochemical; details: 2 nM enzyme, ATP at 40 μM (Km apparent), 90 minutes, mean of three replicates; read-out: ALK IC50
T1 construct: The cytoplasmic domain (amino acids 1058-1620) of wild-type human ALK; GST (N); made in house; host or cells: SF9 insect cells
In short: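 TR-FRET read-out (Eu-W1024 PT66 anti-phosphotyrosine plus streptavidin-allophycocyanin, 320 nm excitation) quantified biotinylated peptide phosphorylation by the purified kinase. Reaction ran 90 minutes at room temperature before quenching with 20 mM EDTA in Tris pH 7.5 buffer with NaCl, BSA and Tween-20.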

T1 sequence (Q9UM73 1058-1620): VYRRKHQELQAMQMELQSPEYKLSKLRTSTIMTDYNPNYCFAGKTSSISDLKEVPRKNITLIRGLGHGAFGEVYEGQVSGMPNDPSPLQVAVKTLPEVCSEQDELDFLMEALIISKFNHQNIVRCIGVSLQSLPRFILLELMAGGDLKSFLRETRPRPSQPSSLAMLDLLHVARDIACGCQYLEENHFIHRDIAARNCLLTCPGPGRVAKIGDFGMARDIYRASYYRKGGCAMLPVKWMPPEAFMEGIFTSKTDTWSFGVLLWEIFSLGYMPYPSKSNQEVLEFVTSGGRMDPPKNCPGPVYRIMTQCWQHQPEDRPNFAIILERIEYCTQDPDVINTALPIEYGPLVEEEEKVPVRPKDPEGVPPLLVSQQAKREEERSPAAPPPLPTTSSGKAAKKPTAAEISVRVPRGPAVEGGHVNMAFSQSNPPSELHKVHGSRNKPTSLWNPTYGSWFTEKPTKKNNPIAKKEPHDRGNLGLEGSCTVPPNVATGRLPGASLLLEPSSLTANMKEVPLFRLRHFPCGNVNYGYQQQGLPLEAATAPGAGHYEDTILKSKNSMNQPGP

Row | IC50 | SMILES
1 | 0.1 to 1 µM | COc1cc(Nc2nccc(N3CCC[C@H](C(=O)NCc4ccc(C)cc4)C3)n2)cc(C(F)(F)F)c1 [Example 170, (3S)-1-(2-((3-methoxy-5-(trifluoromethyl)phenyl)amino)-4-pyrimidinyl)-N-(4-methylbenzyl)-3-piperidinecarboxamide]
2 | 0.1 to 1 µM | Cc1ccc(CNC(=O)[C@H]2CCCN(c3ccnc(Nc4cccc(C(C)C)c4)n3)C2)cc1 [Example 171, (3S)-N-(4-methylbenzyl)-1-(2-((3-(1-methylethyl)phenyl)amino)-4-pyrimidinyl)-3-piperidinecarboxamide]
3 | 1 to 5 µM | Cc1ccc(CNC(=O)[C@H]2CCCN(c3ccnc(Nc4ccc(C(C)C)cc4)n3)C2)cc1 [Example 172, (3S)-N-(4-methylbenzyl)-1-(2-((4-(1-methylethyl)phenyl)amino)-4-pyrimidinyl)-3-piperidinecarboxamide]
4 | 1 to 5 µM | Cc1ccc(CNC(=O)[C@H]2CCCN(c3ccnc(Nc4ccc(C(N)=O)cc4)n3)C2)cc1 [Example 173, (3S)-1-(2-((4-carbamoylphenyl)amino)-4-pyrimidinyl)-N-(4-methylbenzyl)-3-piperidinecarboxamide]
5 | 1 to 5 µM | Cc1ccc(CNC(=O)[C@H]2CCCN(c3ccnc(Nc4cc(Cl)cc(Cl)c4)n3)C2)cc1 [Example 174, (3S)-1-(2-((3,5-dichlorophenyl)amino)-4-pyrimidinyl)-N-(4-methylbenzyl)-3-piperidinecarboxamide]
6 | 1 to 5 µM | Cc1ccc(CNC(=O)[C@H]2CCCN(c3ccnc(Nc4cccc(OCc5ccccc5)c4)n3)C2)cc1 [Example 175, (3S)-1-(2-((3-(benzyloxy)phenyl)amino)-4-pyrimidinyl)-N-(4-methylbenzyl)-3-piperidinecarboxamide]
7 | 5 to 10 µM | Cc1ccc(CNC(=O)[C@H]2CCCN(c3ccnc(Nc4cccc(-c5nnn[nH]5)c4)n3)C2)cc1 [Example 176, (3S)-N-(4-methylbenzyl)-1-(2-((3-(1H-tetrazol-5-yl)phenyl)amino)-4-pyrimidinyl)-3-piperidinecarboxamide]
8 | 0.1 to 1 µM | Cc1ccc(CNC(=O)[C@H]2CCCN(c3ccnc(Nc4cccc(-c5cnco5)c4)n3)C2)cc1 [Example 177, (3S)-N-(4-methylbenzyl)-1-(2-((3-(1,3-oxazol-5-yl)phenyl)amino)-4-pyrimidinyl)-3-piperidinecarboxamide]
9 | 0.1 to 1 µM | CC(=O)Nc1cccc(Nc2nccc(N3CCC[C@H](C(=O)NCc4ccc(C)cc4)C3)n2)c1 [Example 178, (3S)-1-(2-((3-(acetylamino)phenyl)amino)-4-pyrimidinyl)-N-(4-methylbenzyl)-3-piperidinecarboxamide]
10 | 1 to 5 µM | Cc1ccc(CNC(=O)[C@H]2CCCN(c3ccnc(Nc4ccc(F)cc4)n3)C2)cc1 [Example 179, (3S)-1-(2-((4-fluorophenyl)amino)-4-pyrimidinyl)-N-(4-methylbenzyl)-3-piperidinecarboxamide]
11 | 1 to 5 µM | Cc1ccc(CNC(=O)[C@H]2CCCN(c3ccnc(Nc4ccc(C)cc4)n3)C2)cc1 [Example 180, (3S)-N-(4-methylbenzyl)-1-(2-((4-methylphenyl)amino)-4-pyrimidinyl)-3-piperidinecarboxamide]
12 | 0.1 to 1 µM | Cc1ccc(CNC(=O)[C@H]2CCCN(c3ccnc(Nc4cccc(C(C)(C)C)c4)n3)C2)cc1 [Example 181, (3S)-1-(2-((3-tert-butylphenyl)amino)-4-pyrimidinyl)-N-(4-methylbenzyl)-3-piperidinecarboxamide]
13 | 0.1 to 1 µM | Cc1ccc(CNC(=O)[C@H]2CCCN(c3ccnc(Nc4cccc(-c5ccccc5)c4)n3)C2)cc1 [Example 182, (3S)-1-(2-(3-biphenylylamino)-4-pyrimidinyl)-N-(4-methylbenzyl)-3-piperidinecarboxamide]
14 | 0.1 to 1 µM | CC(=O)NCc1cccc(Nc2nccc(N3CCC[C@H](C(=O)NCc4ccc(C)cc4)C3)n2)c1 [Example 183, (3S)-1-(2-((3-((acetylamino)methyl)phenyl)amino)-4-pyrimidinyl)-N-(4-methylbenzyl)-3-piperidinecarboxamide]
15 | 0.1 to 1 µM | Cc1ccc(CNC(=O)[C@H]2CCCN(c3ccnc(Nc4cccc(CC(N)=O)c4)n3)C2)cc1 [Example 184, (3S)-1-(2-((3-(2-amino-2-oxoethyl)phenyl)amino)-4-pyrimidinyl)-N-(4-methylbenzyl)-3-piperidinecarboxamide]
16 | 1 to 5 µM | Cc1ccc(CNC(=O)[C@H]2CCCN(c3ccnc(Nc4cccc(F)c4)n3)C2)cc1 [Example 185, (3S)-1-(2-((3-fluorophenyl)amino)-4-pyrimidinyl)-N-(4-methylbenzyl)-3-piperidinecarboxamide]
17 | 5 to 10 µM | Cc1ccc(CNC(=O)[C@H]2CCCN(c3ccnc(Nc4ccc(C(=O)c5ccccc5)cc4)n3)C2)cc1 [Example 186, (S)-1-(2-(4-benzoylphenylamino)pyrimidin-4-yl)-N-(4-methylbenzyl)piperidine-3-carboxamide]
18 | 0.1 to 1 µM | CCN(CC)CCNC(=O)c1ccc(Nc2nccc(N3CCC[C@H](C(=O)NCc4ccc(C)cc4)C3)n2)cc1 [Example 187, (S)-1-(2-(4-(2-(diethylamino)ethylcarba-moyl)phenylamino)pyri-midin-4-yl)-N-(4-methylbenzyl)piperidine-3-carboxamide]
19 | 0.1 to 1 µM | Cc1ccc(CNC(=O)[C@H]2CCCN(c3ccnc(Nc4ccc(S(N)(=O)=O)cc4)n3)C2)cc1 [Example 188, (S)-N-(4-methylbenzyl)-1-(2-(4-sulfamoylphenylamino)pyrimidin-4-yl)piperidine-3-carboxamide]
20 | 1 to 5 µM | Cc1ccc(CNC(=O)[C@H]2CCCN(c3ccnc(Nc4ccc(-c5cnco5)cc4)n3)C2)cc1 [Example 189, (S)-N-(4-methylbenzyl)-1-(2-(4-(oxazol-5-yl)phenylamino)py-rimidin-4-yl)piperidine-3-carboxamide]
21 | 0.05 to 0.1 µM | Cc1ccc(CNC(=O)[C@H]2CCCN(c3ccnc(Nc4cc(OC[C@H]5CCCN5C)cc(C(F)(F)F)c4)n3)C2)cc1 [Example 190, (S)-N-(4-methylbenzyl)-1-(2-(3-(((R)-1-methylpyrrolidin-2-yl)methoxy)-5-(trifluoromethyl)phenylamino)pyrimidin-4-yl)piperidine-3-carboxamide]
22 | 1 to 5 µM | Cc1ccc(CNC(=O)[C@H]2CCCN(c3ccnc(Nc4ccc(-n5cncn5)cc4)n3)C2)cc1 [Example 191, (S)-1-(2-(4-(1H-1,2,4-triazol-1-yl)phenylamino)pyrimidin-4-yl)-N-(4-methylbenzyl)piperidine-3-carboxamide]
23 | 1 to 5 µM | CCOc1ccc(Nc2nccc(N3CCC[C@H](C(=O)NCc4ccc(C)cc4)C3)n2)cc1 [Example 192, (S)-1-(2-(4-ethoxyphenylamino)pyrimidin-4-yl)-N-(4-methylbenzyl)piperidine-3-carboxamide]
24 | 1 to 5 µM | Cc1ccc(CNC(=O)[C@H]2CCCN(c3ccnc(Nc4ccc(N5CCNC(=O)C5)nc4)n3)C2)cc1 [Example 193, (S)-N-(4-methylbenzyl)-1-(2-(6-(3-oxopiperazin-1-yl)pyridin-3-ylamino)pyrimidin-4-yl)piperidine-3-carboxamide]
